# Experimental data reported in patent US9738634B2, “Heterocyclic amide compound and herbicide” (SYNGENTA PARTICIPATIONS AG, priority 2013, dated 2017).
# How the values were obtained:
# Format in all cases: in vivo
# wild oat [1] = assay: Test Example 4: weedkilling efficacy by foliar treatment; G: wild oat; conditions: treatment dosage 315 g/ha
# Procedure, shortened: (§1)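 Seeds are spot-sown into sterilized diluvial soil and covered with about 1.5 cm of soil. After 14 days' greenhouse growth at 25 to 30° C, plants are sprayed on stems and leaves with diluted emulsion at the stated g/ha rate, then scored at 3 weeks.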
# bulrush [2] = assay: Test Example 1: weedkilling efficacy, preemergent weed treatment in the submerged state; B: bulrush; conditions: treatment dosage 252 g/ha
# Procedure, shortened: (§2)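 Visual scores against set criteria were taken 3 weeks after treatment. Compounds, as diluted emulsions at specified g/ha, went onto the water surface of 4 cm-flooded alluvial soil pots on the day weeds were sown and 2.5-leaf rice was transplanted; greenhouse held 25–30 °C.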
# wheat [3] = assay: Test Example 3: soil treatment, effect on crop; e: wheat; conditions: treatment dosage 315 g/ha
# Procedure, shortened: (§3)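 Crop and weed responses were judged three weeks after a uniform surface spray of the water-diluted emulsion at the given g/ha rate. Seeds sat beneath about 1.5 cm of sterilized diluvial soil, and boxes stood in a greenhouse at 25 to 30° C.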
# bulrush [4] = assay: Test Example 2: weedkilling efficacy, growth period weed treatment in the submerged state; B: bulrush; conditions: treatment dosage 252 g/ha
# Procedure, shortened: (§4)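 Barnyard grass, bulrush and oval-leafed pondweed sown in alluvial soil under 4 cm flooding, greenhouse 25 to 30° C. At 1-2 leaf stage, water-diluted emulsion applied to the water surface at stated g/ha dosages; effects scored 3 weeks later.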
# Indian mallow [5] = assay: Test Example 4: weedkilling efficacy by foliar treatment; K: Indian mallow; conditions: treatment dosage 315 g/ha
# Procedure, shortened: as §1
# directly sown rice [6] = assay: Test Example 4: foliar treatment, effect on crop; b: directly sown rice; conditions: treatment dosage 315 g/ha
# Procedure, shortened: as §1
# catchweed [7] = assay: Test Example 4: weedkilling efficacy by foliar treatment; O: catchweed; conditions: treatment dosage 315 g/ha
# Procedure, shortened: as §1
# oval-leafed pondweed [8] = assay: Test Example 1: weedkilling efficacy, preemergent weed treatment in the submerged state; C: oval-leafed pondweed; conditions: treatment dosage 252 g/ha
# Procedure, shortened: as §2
# Italian ryegrass [9] = assay: Test Example 4: weedkilling efficacy by foliar treatment; I: Italian ryegrass; conditions: treatment dosage 315 g/ha
# Procedure, shortened: as §1
# soybean [10] = assay: Test Example 4: foliar treatment, effect on crop; d: soybean; conditions: treatment dosage 315 g/ha
# Procedure, shortened: as §1
# barnyard grass [11] = assay: Test Example 2: weedkilling efficacy, growth period weed treatment in the submerged state; A: barnyard grass; conditions: treatment dosage 252 g/ha
# Procedure, shortened: as §4
# redroot pigweed [12] = assay: Test Example 4: weedkilling efficacy by foliar treatment; L: redroot pigweed; conditions: treatment dosage 315 g/ha
# Procedure, shortened: as §1
# Indian mallow [13] = assay: Test Example 3: weedkilling efficacy through soil treatment; K: Indian mallow; conditions: treatment dosage 315 g/ha
# Procedure, shortened: as §3
# wheat [14] = assay: Test Example 4: foliar treatment, effect on crop; e: wheat; conditions: treatment dosage 315 g/ha
# Procedure, shortened: as §1
# fig-leafed goosefoot [15] = assay: Test Example 4: weedkilling efficacy by foliar treatment; M: fig-leafed goosefoot; conditions: treatment dosage 315 g/ha
# Procedure, shortened: as §1
# birds-eye speedwell [16] = assay: Test Example 4: weedkilling efficacy by foliar treatment; p: birds-eye speedwell; conditions: treatment dosage 315 g/ha
# Procedure, shortened: as §1
# corn [17] = assay: Test Example 4: foliar treatment, effect on crop; c: corn; conditions: treatment dosage 315 g/ha
# Procedure, shortened: as §1
# wild oat [18] = assay: Test Example 3: weedkilling efficacy through soil treatment; G: wild oat; conditions: treatment dosage 315 g/ha
# Procedure, shortened: as §3
# catchweed [19] = assay: Test Example 3: weedkilling efficacy through soil treatment; O: catchweed; conditions: treatment dosage 315 g/ha
# Procedure, shortened: as §3
# black-grass [20] = assay: Test Example 4: weedkilling efficacy by foliar treatment; H: black-grass; conditions: treatment dosage 315 g/ha
# Procedure, shortened: as §1
# directly sown rice [21] = assay: Test Example 3: soil treatment, effect on crop; b: directly sown rice; conditions: treatment dosage 315 g/ha
# Procedure, shortened: as §3
# redroot pigweed [22] = assay: Test Example 3: weedkilling efficacy through soil treatment; L: redroot pigweed; conditions: treatment dosage 315 g/ha
# Procedure, shortened: as §3
# Italian ryegrass [23] = assay: Test Example 3: weedkilling efficacy through soil treatment; I: Italian ryegrass; conditions: treatment dosage 315 g/ha
# Procedure, shortened: as §3
# crabgrass [24] = assay: Test Example 3: weedkilling efficacy through soil treatment; D: crabgrass; conditions: treatment dosage 315 g/ha
# Procedure, shortened: as §3
# beet [25] = assay: Test Example 3: soil treatment, effect on crop; f: beet; conditions: treatment dosage 315 g/ha
# Procedure, shortened: as §3
# fig-leafed goosefoot [26] = assay: Test Example 3: weedkilling efficacy through soil treatment; M: fig-leafed goosefoot; conditions: treatment dosage 315 g/ha
# Procedure, shortened: as §3
# chickweed [27] = assay: Test Example 3: weedkilling efficacy through soil treatment; N: chickweed; conditions: treatment dosage 315 g/ha
# Procedure, shortened: as §3
# chickweed [28] = assay: Test Example 4: weedkilling efficacy by foliar treatment; N: chickweed; conditions: treatment dosage 315 g/ha
# Procedure, shortened: as §1
# crabgrass [29] = assay: Test Example 4: weedkilling efficacy by foliar treatment; D: crabgrass; conditions: treatment dosage 315 g/ha
# Procedure, shortened: as §1
# oval-leafed pondweed [30] = assay: Test Example 2: weedkilling efficacy, growth period weed treatment in the submerged state; C: oval-leafed pondweed; conditions: treatment dosage 252 g/ha
# Procedure, shortened: as §4
# birds-eye speedwell [31] = assay: Test Example 3: weedkilling efficacy through soil treatment; p: birds-eye speedwell; conditions: treatment dosage 315 g/ha
# Procedure, shortened: as §3
# soybean [32] = assay: Test Example 3: soil treatment, effect on crop; d: soybean; conditions: treatment dosage 315 g/ha
# Procedure, shortened: as §3
# black-grass [33] = assay: Test Example 3: weedkilling efficacy through soil treatment; H: black-grass; conditions: treatment dosage 315 g/ha
# Procedure, shortened: as §3
# transplanted rice = assay: Test Example 1: preemergent weed treatment in the submerged state, effect on crop; a: transplanted rice; conditions: treatment dosage 252 g/ha
# Procedure, shortened: as §2
# green foxtail [34] = assay: Test Example 4: weedkilling efficacy by foliar treatment; E: green foxtail; conditions: treatment dosage 315 g/ha
# Procedure, shortened: as §1
# corn [35] = assay: Test Example 3: soil treatment, effect on crop; c: corn; conditions: treatment dosage 315 g/ha
# Procedure, shortened: as §3
# beet [36] = assay: Test Example 4: foliar treatment, effect on crop; f: beet; conditions: treatment dosage 315 g/ha
# Procedure, shortened: as §1
# barnyard grass [37] = assay: Test Example 1: weedkilling efficacy, preemergent weed treatment in the submerged state; A: barnyard grass; conditions: treatment dosage 252 g/ha
# Procedure, shortened: as §2
# green foxtail [38] = assay: Test Example 3: weedkilling efficacy through soil treatment; E: green foxtail; conditions: treatment dosage 315 g/ha
# Procedure, shortened: as §3
smiles,measurement,setting,value
CC1=C(c2cccnc2F)C(=O)N(C(C)(C)C(=O)Nc2cc(Br)ccn2)CO1 [B-2-09],G (wild oat) weedkilling efficacy grade,wild oat [1],0 (weed kill ratio 5% or less (practically no effect))
same,B (bulrush) weedkilling efficacy grade,bulrush [2],"5 (weed kill ratio 90% or more, (practically complete withering))"
same,e (wheat) effect on crop grade,wheat [3],0 (weed kill ratio 5% or less (practically no effect))
same,B (bulrush) weedkilling efficacy grade,bulrush [4],"5 (weed kill ratio 90% or more, (practically complete withering))"
same,K (Indian mallow) weedkilling efficacy grade,Indian mallow [5],0 (weed kill ratio 5% or less (practically no effect))
same,b (directly sown rice) effect on crop grade,directly sown rice [6],"5 (weed kill ratio 90% or more, (practically complete withering))"
same,O (catchweed) weedkilling efficacy grade,catchweed [7],"1 (weed kill ratio 5% or more, less than 20%)"
same,C (oval-leafed pondweed) weedkilling efficacy grade,oval-leafed pondweed [8],"5 (weed kill ratio 90% or more, (practically complete withering))"
same,I (Italian ryegrass) weedkilling efficacy grade,Italian ryegrass [9],"4 (weed kill ratio 70% or more, less than 90%)"
same,d (soybean) effect on crop grade,soybean [10],0 (weed kill ratio 5% or less (practically no effect))
same,A (barnyard grass) weedkilling efficacy grade,barnyard grass [11],"4 (weed kill ratio 70% or more, less than 90%)"
same,L (redroot pigweed) weedkilling efficacy grade,redroot pigweed [12],0 (weed kill ratio 5% or less (practically no effect))
same,K (Indian mallow) weedkilling efficacy grade,Indian mallow [13],0 (weed kill ratio 5% or less (practically no effect))
same,e (wheat) effect on crop grade,wheat [14],0 (weed kill ratio 5% or less (practically no effect))
same,M (fig-leafed goosefoot) weedkilling efficacy grade,fig-leafed goosefoot [15],"4 (weed kill ratio 70% or more, less than 90%)"
same,P (birds-eye speedwell) weedkilling efficacy grade,birds-eye speedwell [16],"4 (weed kill ratio 70% or more, less than 90%)"
same,c (corn) effect on crop grade,corn [17],0 (weed kill ratio 5% or less (practically no effect))
same,G (wild oat) weedkilling efficacy grade,wild oat [18],"3 (weed kill ratio 40% or more, less than 70%)"
same,O (catchweed) weedkilling efficacy grade,catchweed [19],"3 (weed kill ratio 40% or more, less than 70%)"
same,H (black-grass) weedkilling efficacy grade,black-grass [20],"4 (weed kill ratio 70% or more, less than 90%)"
same,b (directly sown rice) effect on crop grade,directly sown rice [21],"3 (weed kill ratio 40% or more, less than 70%)"
same,L (redroot pigweed) weedkilling efficacy grade,redroot pigweed [22],0 (weed kill ratio 5% or less (practically no effect))
same,I (Italian ryegrass) weedkilling efficacy grade,Italian ryegrass [23],"5 (weed kill ratio 90% or more, (practically complete withering))"
same,D (crabgrass) weedkilling efficacy grade,crabgrass [24],"5 (weed kill ratio 90% or more, (practically complete withering))"
same,f (beet) effect on crop grade,beet [25],"1 (weed kill ratio 5% or more, less than 20%)"
same,M (fig-leafed goosefoot) weedkilling efficacy grade,fig-leafed goosefoot [26],"3 (weed kill ratio 40% or more, less than 70%)"
same,N (chickweed) weedkilling efficacy grade,chickweed [27],"2 (weed kill ratio 20% or more, less than 40%)"
same,N (chickweed) weedkilling efficacy grade,chickweed [28],"3 (weed kill ratio 40% or more, less than 70%)"
same,D (crabgrass) weedkilling efficacy grade,crabgrass [29],"5 (weed kill ratio 90% or more, (practically complete withering))"
same,C (oval-leafed pondweed) weedkilling efficacy grade,oval-leafed pondweed [30],"3 (weed kill ratio 40% or more, less than 70%)"
same,P (birds-eye speedwell) weedkilling efficacy grade,birds-eye speedwell [31],"4 (weed kill ratio 70% or more, less than 90%)"
same,d (soybean) effect on crop grade,soybean [32],0 (weed kill ratio 5% or less (practically no effect))
same,H (black-grass) weedkilling efficacy grade,black-grass [33],"4 (weed kill ratio 70% or more, less than 90%)"
same,a (transplanted rice) effect on crop grade,transplanted rice,"1 (weed kill ratio 5% or more, less than 20%)"
same,E (green foxtail) weedkilling efficacy grade,green foxtail [34],"5 (weed kill ratio 90% or more, (practically complete withering))"
same,c (corn) effect on crop grade,corn [35],0 (weed kill ratio 5% or less (practically no effect))
same,f (beet) effect on crop grade,beet [36],"1 (weed kill ratio 5% or more, less than 20%)"
same,A (barnyard grass) weedkilling efficacy grade,barnyard grass [37],"5 (weed kill ratio 90% or more, (practically complete withering))"
same,E (green foxtail) weedkilling efficacy grade,green foxtail [38],"5 (weed kill ratio 90% or more, (practically complete withering))"
